ChEMBL document CHEMBL5532736, “Novel Approaches for Upregulation of Tumor Suppressor Proteins: Pioneering Strategies and Integrative Potentials” (ACS Med Chem Lett, 2024)

Tests used:
[1] = Cytotoxicity against human EU-1 cells assessed as inhibition of cell viability incubated for 24 to 72 hrs by CCK8 assay; type: functional, cell-based
[2] = target: E3 ubiquitin-protein ligase Mdm2 (Homo sapiens) (UniProt Q00987); assay: Induction of MDM2 degradation in human EU-1 cells assessed as increase in p53 level at 0.8 uM by Western blot analysis; type: cell-based; conditions: time <= 24.0 hrs, TDE = time-dependent effect
Sequence of E3 ubiquitin-protein ligase Mdm2 (Homo sapiens) (Q00987 whole entry, looked up): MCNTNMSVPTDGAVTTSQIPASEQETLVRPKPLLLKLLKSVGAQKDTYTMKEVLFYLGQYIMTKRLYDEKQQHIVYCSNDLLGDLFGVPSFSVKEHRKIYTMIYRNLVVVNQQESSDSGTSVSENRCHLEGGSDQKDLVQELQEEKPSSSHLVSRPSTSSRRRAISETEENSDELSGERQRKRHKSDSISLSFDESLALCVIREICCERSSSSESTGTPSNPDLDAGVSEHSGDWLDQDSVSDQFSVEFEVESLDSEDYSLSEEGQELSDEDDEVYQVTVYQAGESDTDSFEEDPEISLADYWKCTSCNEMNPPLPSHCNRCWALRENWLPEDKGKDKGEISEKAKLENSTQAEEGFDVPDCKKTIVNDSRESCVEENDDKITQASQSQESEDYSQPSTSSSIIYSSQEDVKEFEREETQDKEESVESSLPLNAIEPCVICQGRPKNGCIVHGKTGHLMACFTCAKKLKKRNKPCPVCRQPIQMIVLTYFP

[3] = target: E3 ubiquitin-protein ligase Mdm2 (Homo sapiens) (UniProt Q00987); assay: Induction of MDM2 degradation in human EU-1 cells assessed as increase in p53 level incubated for 6 hrs by Western blot analysis; type: cell-based; conditions: dose <= 2.0 µM
[4] = target: E3 ubiquitin-protein ligase Mdm2 (Homo sapiens) (UniProt Q00987); assay: Induction of MDM2 degradation in human EU-1 cells incubated for 6 hrs by Western blot analysis; type: cell-based; conditions: dose <= 2.0 µM
[5] = target: E3 ubiquitin-protein ligase Mdm2 (Homo sapiens) (UniProt Q00987); assay: Induction of MDM2 degradation in human EU-1 cells at 0.8 uM by Western blot analysis; type: cell-based; conditions: time <= 24.0 hrs, TDE = time-dependent effect

## C=CS(=O)(=O)Nc1cc(OCCCC(C)=O)c2c(c1)C(=O)c1cccc(OCCCC(C)=O)c1C2=O
[1]
  IC50: 3450 nM

## CC(=O)CCCCOc1cccc2c1C(=O)c1c(OCCCCC(C)=O)cc(NC(=O)CCl)cc1C2=O
[1]
  IC50: 790 nM

## CC(=O)CCOc1cccc2c1C(=O)c1c(OCCC(C)=O)cc(NC(=O)CCl)cc1C2=O
[1]
  IC50: 450 nM

## CC(=O)CCCOc1cccc2c1C(=O)c1c(OCCCC(C)=O)cc(NC(C)=O)cc1C2=O
[1]
  IC50: > 100000 nM

## C=CC(=O)Nc1cc(OCCCC(C)=O)c2c(c1)C(=O)c1cccc(OCCCC(C)=O)c1C2=O
[1]
  IC50: 6210 nM

## CC(=O)CCCOc1cc(NC(=O)CCl)cc2c1C(=O)c1c(O)cccc1C2=O
[1]
  IC50: 840 nM

## O=C(CCl)Nc1cc(OCCO)c2c(c1)C(=O)c1cccc(OCCO)c1C2=O
[1]
  IC50: 740 nM

## C#CC(=O)Nc1cc(OCCCC(C)=O)c2c(c1)C(=O)c1cccc(OCCCC(C)=O)c1C2=O
[1]
  IC50: 190 nM

## CC(=O)CCCOc1cccc2c1C(=O)c1c(OCCCC(C)=O)cc(NC(=O)CCl)cc1C2=O
[2]
  Activity: Tde
[3]
  Activity: Dose-Dependent Effect
[4]
  Activity: Dose-Dependent Effect
[5]
  Activity: Tde
[1]
  IC50: 430 nM
